Results on 3 compounds are retold here after patent publication US20010034448A1, “New compounds, their preparation and use” (priority 1998, published 2001).

The structures appear in SMILES notation.

For one data set, the system named is RXR/PPAR heterodimers. Particulars: Mukherjee et al., Nature 1997, 386, 407-410; WO 97/10819; cited from earlier work.
Another data set deals with ob/ob and db/db mice. The note with it: Mukherjee et al., Nature 1997; cited from earlier work.
In the next data set the test system is RAR. The note with it: Heyman et al. Cell 1992, 68, 397-406; cited from earlier work.

In turn, `Cc1cc2c(cc1C13CC1CCC3=Cc1ccc(C(=O)O)cc1)C(C)(C)CCC2(C)C` (stereo not shown) [Example 1, 4-[1-(3,5,5,8,8-Pentamethyl-5,6,7,8-tetrahydro-naphthalen-2-yl)-bicyclo[3.1.0]hex-2-ylidenemethyl]-benzoic Acid] yielded a melting point of 274.5 to 275.2 °C.

For `Cc1cc2c(cc1C1(c3ccc(C(=O)O)cn3)CC1)C(C)(C)CCC2(C)C` [LG 100268], the “activation of RXR/PPAR heterodimers” value with RXR/PPAR heterodimers was “activate RXR/PPAR heterodimers”. Further, in the data set with ob/ob and db/db mice, the “glucose, insulin and triglyceride levels” value is “reduction in glucose, insulin and triglyceride levels”.

Regarding `CC1=C(/C=C/C(C)=C\C=C\C(C)=C\C(=O)O)C(C)(C)CCC1` [9-cis retinoic acid], the “activation of RAR” value in the data set on RAR was “activates both RXR and RAR”.
